Experimental data from patent publication US20060172890A1, “Liquid formulation of a plant growth regulator” (priority 2004, published 2006).
Where two headings read alike, the source gives them in different places.

Assays:
dwarf morning glory = details: cited from earlier work
pea seedlings = details: cited from earlier work
[1] = Solubility of GA in solvents and solvent blends; format: physicochemical
Description: Gibberellic acid (GA) of 92% purity as a dry powder was used in these laboratory studies. The solvents and reagents were of reagent grade purity.
Also, the GA was easier to dissolve in the solvent blends because they were not as viscous as the single solvents. Moreover, the solvent blends had high flash points. A flash point above 140° F. is very desirable because there are less regulatory restrictions on manufacturing, transportation, and storage.

[2] = test system: corn, green bean, cucumber, tomato, ryegrass and hosta seedlings; assay: Phytotoxicity of sprayed aqueous solvents, greenhouse tests; format: in vivo; details: sprayed 1 to 2% aqueous solutions; greenhouse tests with seedlings
Description: (§1) The potential for phytotoxicity (plant injury) by spraying 1 to 2% aqueous solutions of ethyl lactate and solvent blends with ethyl lactate, as well as other ingredients such as glycerol and soy methyl esters was evaluated in field tests with apple trees and in greenhouse tests with corn, green bean, cucumber, tomato, ryegrass and hosta seedlings.

apple trees = assay: Phytotoxicity of sprayed aqueous solvents, field tests; format: in vivo; details: sprayed 1 to 2% aqueous solutions; field tests with apple trees
Description: as §1

In the case of gibberellin, the effect on flowering (dwarf morning glory; 2 to 20 micrograms) is given as “inhibits flowering”, the effect on flowering (dwarf morning glory; application of 0.02 micrograms) is given as “promotes flowering” and the “effect on shoot length” value (pea seedlings; ten micrograms applied at 3 days old) is given as “nearly doubled shoot length”. For the same compound, the “effect on shoot length” value (pea seedlings; ten micrograms, 9 day old seedlings) was “barely affected”.
For `C=C1C[C@]23C[C@@]1(O)CC[C@H]2[C@@]12C=C[C@H](O)[C@@](C)(C(=O)O1)[C@H]2[C@@H]3C(=O)O` [GA, Gibberellic acid], the “solubility of GA in the solvent blends compared with ethyl lactate alone” value ([1]; 80:20 (w/w) ethyl lactate with propylene glycol or glycerol) was “twice as much”, the “amount of GA dissolved in glycerol” value ([1]; glycerol alone, solution very viscous and difficult to mix) was “a small amount” and the “effect of mild heating on dissolution of GA in ethyl lactate” value ([1]; mild heating to 60° C.) was “did not increase the dissolution”. For the same compound, the “amount of GA dissolved in propylene glycol” value ([1]; propylene glycol alone, solution very viscous and difficult to mix) was “a small amount” and the “solubility of GA in ethyl lactate alone” value ([1]; room temperature) was “approximately 2 % (w/w)”.
With `CCOC(=O)C(C)O` (centres unmarked) [ethyl lactate] the “phytotoxicity (plant injury)” value [2] was “no evidence of phytotoxicity” and the “phytotoxicity (plant injury)” value (apple trees) was “no evidence of phytotoxicity”.
